# Tested on: 677734-321-R-J1-PDC complex spheroid viability
# Assay: Anticancer human tumor 677734-321-R-J1-PDC patient-derived soft tissue sarcoma cell line growth inhibition [POLQ]
# Conditions: for IC50: curve of first compound; for viability, T/C: stronger effect = lower value
# Protocol: Multicellular complex tumor spheroid response to Polymerase (POL) inhibitors (novobiocin, ART-558, RP6685) in combination with a variety of drugs and investigational agents in selected tumor cell lines
# The POL inhibitors (novobiocin, ART-558, and RP6685) were evaluated both individually and in combination with standard of care and investigational anticancer small molecules within a complex spheroid model of solid tumors. . Complex spheroids include a stromal component modeled by human endothelial cells (HUVEC) and fibroblasts modeled by human mesenchymal stem cells (MSCs). The concentration ranges selected for each drug and investigational agent were based upon clinically achievable concentrations if the clinical Cmax of the agent was known.
# Compounds. The drugs and investigational agents: novobiocin (NSC847541), ART-558 (NSC835418), RP-6685 (NSC848927), peposertib (NSC802822), ceralasertib (NSC780249), elimusertib (NSC800525), camonsertib (NSC841442), AZD-1390 (NSC803789), olaparib (NSC753686), talazoparib (NSC767125), rucaparib (NSC756644), sotorasib (NSC818433), MRTX-1133 (NSC836407), SN-38 (NSC673596), topotecan (NSC609699), epotoside (NSC141540), doxorubicin (NSC123127), gemcitabine (NSC613327), 5-fluorouracil (NSC19893), paclitaxel (NSC125973), vemurafenib (NSC761431), MSA-2 (NSC828583), SN-011 (NSC837082), adavosertib (NSC754352), prexasertib (NSC758257), carboplatin (NSC241240) and oxaliplatin (NSC266046), were obtained from the National Cancer Institute (NCI) Developmental Therapeutics Program Chemical Repository (21). The FDA-approved anticancer drug set is available from the Developmental Therapeutics Program at https://dtp.cancer.gov/organization/dscb/obtaining/. […] The stock solutions were prepared in dimethyl sulfoxide (DMSO, Sigma-Aldrich, St. Louis, MO, cat. D2650), except for the platinum compounds which were prepared in saline (Quality Biological, Gaithersburg, MD, cat. 114-055-101), at 800-fold the tested concentration and stored at -70 degrees C prior to their use. All drugs and investigational agents were tested over a range starting from a high concentration at or near the clinical Cmax and decreasing in half-log increments. If the clinical Cmax for an agent had not been determined, the highest concentration tested was 10 microM, except for SN-38, which was tested at a high concentration of 1 microM.
# Cell Culture. All cells were maintained in an incubator at 37 degrees C and 5% CO2 with 95% humidity. The PDC lines were cultured according to standard operating procedures established by the NCI PDMR (https://pdmr.cancer.gov). Table 3 of the manuscript, lists the cell lines along with the number of the three cell types plated to form the mct-spheroids and media for tumor cell growth. After thawing, all PDC lines, except 997537-175-T-J1-PDC and 415267-285-R-J2-PDC, were cultured in Matrigel-coated flasks prepared with a working solution of 1X Ham's F-12 nutrient mix, without supplementation (Thermo Fisher Scientific, cat. 11765054), 100 U/mL penicillin-streptomycin (Thermo Fisher Scientific, cat. 15140122), and 2.5% Matrigel (Corning Inc., Corning, NY, cat. 354248) for the first three passages. The two PDC lines 997537-175-T-J1-PDC and 415267-285-R-J2-PDC were cultured on uncoated flasks. The 857933-349-R-J2-PDC line was cultured in 6C/Colon 1B media containing advanced DMEM/F-12 (Thermo Fisher Scientific, cat. 12634028), 10 mM HEPES (Thermo Fisher Scientific, cat. 15630080), 1X GlutaMAX supplement (Thermo Fisher Scientific, cat. 35050061), 0.1 mg/mL primocin (InvivoGen, San Diego, CA, cat. ant-pm-2), 10% defined fetal bovine serum, heat inactivated (HyClone Laboratories Inc., Logan, UT, cat. SH30070.03HI), 50% L-WRN conditioned media (ATCC, cat. CRL-3276), 1.25 mM N-Acetyl-L-cysteine (Sigma-Aldrich, cat. A9165), 10 mM nicotinamide (Sigma-Aldrich, cat. N0636), 1X B-27 supplement (Thermo Fisher Scientific, cat. 17504044), 1X N-2 supplement (Thermo Fisher Scientific, cat. […]
# [1] = second compound 0.0316 µM, first compound 0.0316 µM
# [2] = second compound 0.0316 µM, first compound 0.1 µM
# [3] = second compound 0.0316 µM, first compound 0.316 µM
# [4] = second compound 0.0316 µM, first compound 1 µM
# [5] = second compound 0.0316 µM, first compound 3.16 µM
# [6] = second compound 0.0316 µM, first compound 10 µM
# [7] = second compound 0.1 µM, first compound 0.0316 µM
# [8] = second compound 0.1 µM, first compound 0.1 µM
# [9] = second compound 0.1 µM, first compound 0.316 µM
# [10] = second compound 0.1 µM, first compound 1 µM
# [11] = second compound 0.1 µM, first compound 3.16 µM
# [12] = second compound 0.1 µM, first compound 10 µM
# [13] = second compound 0.316 µM, first compound 0.0316 µM
# [14] = second compound 0.316 µM, first compound 0.1 µM
# [15] = second compound 0.316 µM, first compound 0.316 µM
# [16] = second compound 0.316 µM, first compound 1 µM
# [17] = second compound 0.316 µM, first compound 3.16 µM
# [18] = second compound 0.316 µM, first compound 10 µM
# [19] = second compound 1 µM, first compound 0.0316 µM
# [20] = second compound 1 µM, first compound 0.1 µM
# [21] = second compound 1 µM, first compound 0.316 µM
# [22] = second compound 1 µM, first compound 1 µM
# [23] = second compound 1 µM, first compound 3.16 µM
# [24] = second compound 1 µM, first compound 10 µM
# [25] = second compound 3.16 µM, first compound 0.0316 µM
# [26] = second compound 3.16 µM, first compound 0.1 µM
# [27] = second compound 3.16 µM, first compound 0.316 µM
# [28] = second compound 3.16 µM, first compound 1 µM
# [29] = second compound 3.16 µM, first compound 3.16 µM
# [30] = second compound 3.16 µM, first compound 10 µM
# [31] = second compound 10 µM, first compound 0.0316 µM
# [32] = second compound 10 µM, first compound 0.1 µM
# [33] = second compound 10 µM, first compound 0.316 µM
# [34] = second compound 10 µM, first compound 1 µM
# [35] = second compound 10 µM, first compound 3.16 µM
# [36] = second compound 10 µM, first compound 10 µM
# 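Also: spheroids exposed to compounds for one week.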
# 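For viability, T/C in this document: 100% = vehicle DMSO treated spheroids.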
compound,measurement,setting,value
CNCc1ccc(-c2[nH]c3cc(F)cc4c3c2CCNC4=O)cc1 + COC1C(OC(N)=O)C(O)C(Oc2ccc3c(O)c(NC(=O)c4ccc(O)c(CC=C(C)C)c4)c(=O)oc3c2C)OC1(C)C,IC50,second compound 0.0316 µM,> 10 µM
same,IC50,second compound 0.1 µM,> 10 µM
same,IC50,second compound 0.316 µM,> 10 µM
same,IC50,second compound 1 µM,> 10 µM
same,IC50,second compound 3.16 µM,> 10 µM
same,IC50,second compound 10 µM,> 10 µM
same,"viability, T/C",[1],101%
same,"viability, T/C",[2],103%
same,"viability, T/C",[3],96.6%
same,"viability, T/C",[4],107%
same,"viability, T/C",[5],111%
same,"viability, T/C",[6],103%
same,"viability, T/C",[7],103%
same,"viability, T/C",[8],101%
same,"viability, T/C",[9],101%
same,"viability, T/C",[10],109%
same,"viability, T/C",[11],104%
same,"viability, T/C",[12],96.5%
same,"viability, T/C",[13],107%
same,"viability, T/C",[14],102%
same,"viability, T/C",[15],106%
same,"viability, T/C",[16],106%
same,"viability, T/C",[17],104%
same,"viability, T/C",[18],103%
same,"viability, T/C",[19],114%
same,"viability, T/C",[20],99.8%
same,"viability, T/C",[21],101%
same,"viability, T/C",[22],107%
same,"viability, T/C",[23],106%
same,"viability, T/C",[24],104%
same,"viability, T/C",[25],102%
same,"viability, T/C",[26],106%
same,"viability, T/C",[27],100%
same,"viability, T/C",[28],110%
same,"viability, T/C",[29],108%
same,"viability, T/C",[30],101%
same,"viability, T/C",[31],106%
same,"viability, T/C",[32],102%
same,"viability, T/C",[33],106%
same,"viability, T/C",[34],108%
same,"viability, T/C",[35],105%
same,"viability, T/C",[36],101%
O=C(Nc1ccc(O)c(NS(=O)(=O)c2ccc(F)cc2)c1)c1ccc(-c2ccccc2)cc1 + COC1C(OC(N)=O)C(O)C(Oc2ccc3c(O)c(NC(=O)c4ccc(O)c(CC=C(C)C)c4)c(=O)oc3c2C)OC1(C)C,IC50,second compound 0.0316 µM,7.22 µM
same,IC50,second compound 0.1 µM,7.58 µM
same,IC50,second compound 0.316 µM,8.78 µM
same,IC50,second compound 1 µM,7.48 µM
same,IC50,second compound 3.16 µM,8.18 µM
same,IC50,second compound 10 µM,6.87 µM
same,"viability, T/C",[1],112%
same,"viability, T/C",[2],100%
same,"viability, T/C",[3],102%
same,"viability, T/C",[4],101%
same,"viability, T/C",[5],85.9%
same,"viability, T/C",[6],35.6%
same,"viability, T/C",[7],104%
same,"viability, T/C",[8],106%
same,"viability, T/C",[9],99.2%
same,"viability, T/C",[10],101%
same,"viability, T/C",[11],101%
same,"viability, T/C",[12],33.8%
same,"viability, T/C",[13],111%
same,"viability, T/C",[14],99.9%
same,"viability, T/C",[15],104%
same,"viability, T/C",[16],106%
same,"viability, T/C",[17],97.9%
same,"viability, T/C",[18],43.8%
same,"viability, T/C",[19],108%
same,"viability, T/C",[20],109%
same,"viability, T/C",[21],110%
same,"viability, T/C",[22],101%
same,"viability, T/C",[23],92.1%
same,"viability, T/C",[24],35.8%
same,"viability, T/C",[25],109%
same,"viability, T/C",[26],101%
same,"viability, T/C",[27],108%
same,"viability, T/C",[28],103%
same,"viability, T/C",[29],84.9%
same,"viability, T/C",[30],42.7%
same,"viability, T/C",[31],103%
same,"viability, T/C",[32],108%
same,"viability, T/C",[33],102%
same,"viability, T/C",[34],100%
same,"viability, T/C",[35],81.7%
same,"viability, T/C",[36],34.6%

# Reference: PubChem BioAssay AID1963842 (Molecular Pharmacology Branch, DTP, NCI, 2024)
